The values below come from patent US6500323B1, “Methods and software for designing microfluidic devices” (Caliper Technologies Corp., priority 1999, dated 2002).

For one assay, the target named is Protein Kinase A (PKA) (Homo sapiens, UniProt P17612). Put plainly: nonfluorogenic (mobility shift) assay of kinase activity in microfluidic device. Type of assay: biochemical. Particulars: PKA 100 nM, 10 μM F1-Kemptide; different concentrations of inhibitor sipped; FIG. 3C. On the procedure:
The device illustrated in FIG. 3B was used as described to perform a nonfluorogenic assay of kinase activity, and particularly, to screen for inhibition of kinase activity by inhibitors brought into the device via the external sampling capillary. In particular, Protein Kinase A (PKA) enzyme (100 nM) was placed into well 350, while the fluorescent substrate (10 μM F1-Kemptide) was placed into well 352, different concentrations of an exemplary PKA inhibitor (H-89) were sipped into the reaction channel portion 304 via an external capillary element (the entry point of which is shown as 302) at regular intervals. Flow of materials, including sipping of inhibitor was caused by applying vacuum (as described above) at waste reservoir 358. An electric field was constantly applied across the length of channel segment 310 by virtue of different voltages being applied at reservoirs 354 and 356. The process utilized a 5 second sipping time, with an overall 100 second duty cycle, e.g., reaction time plus separation time plus clearing time.

The target of assay [1] is T1, Gq coupled P2u purinergic receptor (THP-1) (Homo sapiens, UniProt P41231).
T1 construct: cell line that carried the Gq coupled P2u purinergic receptor (THP-1); endogenous in cells; host or cells: THP-1 (human monocytic leukemia cell line)
T1 sequence (P41231 whole entry): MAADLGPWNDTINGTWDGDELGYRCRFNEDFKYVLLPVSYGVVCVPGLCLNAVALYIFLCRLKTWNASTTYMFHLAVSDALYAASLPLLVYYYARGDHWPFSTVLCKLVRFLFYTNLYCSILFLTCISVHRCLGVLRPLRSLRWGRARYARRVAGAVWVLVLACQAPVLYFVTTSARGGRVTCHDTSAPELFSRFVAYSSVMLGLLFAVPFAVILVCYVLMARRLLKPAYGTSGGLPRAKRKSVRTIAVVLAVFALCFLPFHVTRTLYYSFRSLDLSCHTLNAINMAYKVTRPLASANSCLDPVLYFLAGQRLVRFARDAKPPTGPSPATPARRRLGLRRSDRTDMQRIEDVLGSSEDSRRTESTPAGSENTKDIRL
Put plainly: model calcium flux assay, dose response in microfluidic device. Particulars: THP-1 cells preloaded with Fluo-3 or Fluo-4; UTP 100, 300, 1000 and 3000 nM; detection 15 seconds after initial exposure; FIG. 2D/2E. The class given is cell-based. The source says: The device shown in FIG. 2C was fabricated and used to test the dose response of a human monocytic leukemia cell line that carried the Gq coupled P2u purinergic receptor (THP-1), as a model calcium flux assay. Briefly, a phospholipase C/IP3/calcium signal transduction pathway is activated when the receptor binds to its ligand, UTP. When the cells are preloaded with a calcium sensitive indicator, i.e., Fluo-3 or Fluo-4 (available from Molecular Probes, Eugene, Oreg.), the transient increase in intracellular calcium is then detected as a fluorescent signal.
In the present example and with reference to FIGS. 2A and 2C, THP-1 cells were preloaded with Fluo-3 or Fluo-4, as well as a nucleic acid stain (Syto-62 from Molecular Probes). The cells were washed and resuspended in Cell Buffer (1.56 ml HBSS, 0.94 ml 33% Ficoll, 5 μl HEPES (1 M stock), 25 μl 100×PBC, 25 μl 10% BSA, and 0.546 ml OPTI-Prep (65% stock)) and added to reservoir 206. Different concentrations of UTP in Cell Buffer (100, 300, 1000 and 3000 nM, respectively) were then added to reagent reservoirs 210-216. […]
In order to monitor the stepwise increase of each UTP reagent solution, an additional marker solution, BODIPY-arginine, was added to the reagent reservoirs 210-216. […] Briefly, the slope of calcium signal (response) vs. Syto 62 signal (cell number) was calculated for each UTP concentration.
(In general: A change in cytosolic calcium serves as a functional read-out for many receptors and channels.)

With `O=S(=O)(NCCNC/C=C/c1ccc(Br)cc1)c1cccc2cnccc12` [H-89], at Protein Kinase A (PKA), the “inhibition of kinase activity (deviation from steady state)” value is listed as “greatest deviation from steady state (A) is seen with highest inhibitor concentration”.
For `O=c1ccn([C@@H]2O[C@H](COP(=O)(O)OP(=O)(O)OP(=O)(O)O)[C@@H](O)[C@H]2O)c(=O)[nH]1` [UTP], the “calcium signal (response), fluorescent signal from each cell” value in assay [1] is on record as “peaks increase discernibly in size with each stepwise addition”.
